ChEMBL document CHEMBL5030514, “Discovery of Anti-TNBC Agents Targeting PTP1B: Total Synthesis, Structure-Activity Relationship, In Vitro and In Vivo Investigations of Jamunones” (J Med Chem, 2021)
Calls of active or inactive are those of the source. No cut-off for these calls is given here.

Tests used:
MDA-MB-231 [1] = assay: Antiproliferative activity against human MDA-MB-231 cells measured by MTT assay; assay type: functional, cell-based
[2] = Selective index, ratio of IC50 for human 293T cells to IC50 of MCF-7 cells; assay type: toxicity; conditions: 293T cells versus MCF-7 cells, read-out: Selectivity Index
MDA-MB-231 [3] = assay: Antiproliferative activity against human MDA-MB-231 cells assessed as effect on cell viability at 0.56-5 uM for 24 hrs measured by MTT assay; assay type: functional, cell-based
MDA-MB-231 [4] = assay: Induction of mitochondrial apoptosis in human MDA-MB-231 cells assessed as chromatin shrinkage by Hoechst 33258 staining based fluorescence microscopic assay; assay type: functional, cell-based
MDA-MB-231 [5] = assay: Induction of mitochondrial apoptosis in human MDA-MB-231 cells assessed as membrane blebbing by Hoechst 33258 staining based fluorescence microscopic assay; assay type: functional, cell-based
MDA-MB-231 [6] = assay: Induction of mitochondrial apoptosis in human MDA-MB-231 cells assessed as formation of apoptotic bodies by Hoechst 33258 staining based fluorescence microscopic assay; assay type: functional, cell-based
MCF7 [7] = assay: Induction of mitochondrial apoptosis in human MCF-7 cells assessed as membrane blebbing by Hoechst 33258 staining based fluorescence microscopic assay; assay type: functional, cell-based
MCF7 [8] = assay: Induction of mitochondrial apoptosis in human MCF-7 cells assessed as decrease in mitochondrial membrane potential levels at 5 uM measured after 24 hrs by flow cytometry; assay type: functional; set-up: scale not given: the % may be the effect or the level left
MDA-MB-231 [9] = assay: Induction of apoptosis in human MDA-MB-231 cells assessed as increase in production of cleaved caspase-9 at 0.56 to 5 uM measured after 24 hrs by Western blot analysis; assay type: functional, cell-based; conditions: dose 0.56-5 µM
MDA-MB-231 [10] = assay: Induction of apoptosis in human MDA-MB-231 cells assessed as increase in production of cleaved caspase-3 at 0.56 to 5 uM measured after 24 hrs by Western blot analysis; assay type: functional, cell-based; conditions: dose 0.56-5 µM
MCF7 [11] = assay: Induction of apoptosis in human MCF-7 cells assessed as increase in Bax protein expression at 1.67 to 15 uM measured after 24 hrs by Western blot analysis; assay type: functional, cell-based; conditions: dose 1.67-15 µM
MCF7 [12] = assay: Induction of apoptosis in human MCF-7 cells assessed as increase in production of cleaved caspase-9 at 1.67 to 15 uM measured after 24 hrs by Western blot analysis; assay type: functional, cell-based; conditions: dose 1.67-15 µM
MCF7 [13] = assay: Induction of apoptosis in human MCF-7 cells assessed as decrease in Bcl-2 level at 1.67 to 15 uM measured after 24 hrs by Western blot analysis; assay type: functional, cell-based; conditions: dose 1.67-15 µM
MCF7 [14] = assay: Induction of apoptosis in human MCF-7 cells assessed as upregulation of cleaved poly(ADP-ribose) polymerase level at 1.67 to 15 uM measured after 24 hrs by Western blot analysis; assay type: functional, cell-based; conditions: dose 1.67-15 µM
MDA-MB-231 [15] = assay: Cell cycle arrest in human MDA-MB-231 cells assessed as downregulation of cyclin D1 expression by Western blot analysis; assay type: functional, cell-based
MDA-MB-231 [16] = assay: Cell cycle arrest in human MDA-MB-231 cells assessed as downregulation of cyclin E1 expression by Western blot analysis; assay type: functional, cell-based
MDA-MB-231 [17] = assay: Cell cycle arrest in human MDA-MB-231 cells assessed as downregulation of CDK2 expression by Western blot analysis; assay type: functional, cell-based
MDA-MB-231 [18] = assay: Cell cycle arrest in human MDA-MB-231 cells assessed as downregulation of CDK4 expression by Western blot analysis; assay type: functional, cell-based
MDA-MB-231 [19] = assay: Cell cycle arrest in human MDA-MB-231 cells assessed as downregulation of CDK6 expression by Western blot analysis; assay type: functional, cell-based
MDA-MB-231 [20] = assay: Cell cycle arrest in human MDA-MB-231 cells assessed as upregulation of p21 level by Western blot analysis; assay type: functional, cell-based
MCF7 [21] = assay: Cell cycle arrest in human MCF-7 cells assessed as downregulation of cyclin D3 expression by Western blot analysis; assay type: functional, cell-based
MCF7 [22] = assay: Cell cycle arrest in human MCF-7 cells assessed as downregulation of cyclin E1 expression by Western blot analysis; assay type: functional, cell-based
MCF7 [23] = assay: Cell cycle arrest in human MCF-7 cells assessed as upregulation of p21 level by Western blot analysis; assay type: functional, cell-based
MCF7 [24] = assay: Inhibition of PTP1B expression in human MCF7 cells by Western blot analysis; assay type: functional, cell-based
MDA-MB-231 [25] = assay: Effect on PI3K p85 expression in human MDA-MB-231 cells by Western blot analysis; assay type: functional, cell-based
MDA-MB-231 [26] = assay: Effect on Akt expression in human MDA-MB-231 cells by Western blot analysis; assay type: functional, cell-based
MDA-MB-231 [27] = assay: Antitumour activity against human MDA-MB-231 cells xenografted in BALB/c nude mouse assessed as tumour growth inhibition at 15 mg/kg, ip administered once for every other day for 20 days relative to control; assay type: functional; conditions: MDA-MB-231, ip, 480 h, time 20 day, read-out: TGI
MDA-MB-231 [28] = assay: Antitumour activity against human MDA-MB-231 cells xenografted in BALB/c nude mouse assessed as tumour growth inhibition at 30 mg/kg, ip administered once for every other day for 20 days relative to control; assay type: functional; conditions: MDA-MB-231, ip, 480 h, time 20 day, read-out: TGI
MDA-MB-231 [29] = assay: Antitumour activity against human MDA-MB-231 cells xenografted in BALB/c nude mouse assessed as upregulation of Bax level by western blot; assay type: functional, cell-based
MDA-MB-231 [30] = assay: Antitumour activity against human MDA-MB-231 cells xenografted in BALB/c nude mouse assessed as upregulation of cleaved caspase-3 level at 15 to 30 mg/kg, ip administered once for every other day for 20 days by Western blot analysis; assay type: functional, organism-based; conditions: dose 15-30 mg/kg, time 20.0 day
MDA-MB-231 [31] = assay: Antitumour activity against human MDA-MB-231 cells xenografted in BALB/c nude mouse assessed as upregulation of p21 level at 15 to 30 mg/kg, ip administered once for every other day for 20 days by Western blot analysis; assay type: functional, organism-based; conditions: dose 15-30 mg/kg, time 20.0 day
MCF7 [32] = assay: Inhibition of PI3K p85 phosphorylation in human MCF7 cells by Western blot analysis; assay type: cell-based
MDA-MB-231 [33] = assay: Induction of mitochondrial apoptosis in human MDA-MB-231 cells assessed as viable cells at 5 uM measured after 24 hrs by FITC -annexin V/PI double staining based flow cytometric analysis (Rvb =94.3%); assay type: functional; conditions: read-out: Activity
MDA-MB-231 [34] = assay: Induction of mitochondrial apoptosis in human MDA-MB-231 cells assessed as early apoptotic cells at 5 uM measured after 24 hrs by FITC -annexin V/PI double staining based flow cytometric analysis (reference value: 1.2%); assay type: functional
MCF7 [35] = assay: Induction of mitochondrial apoptosis in human MCF7 cells assessed as early apoptotic cells at 15 uM measured after 24 hrs by FITC -annexin V/PI double staining based flow cytometric analysis (reference value: 3.3%); assay type: functional
MCF7 [36] = assay: Induction of mitochondrial apoptosis in human MCF7 cells assessed as early apoptotic cells at 15 uM measured after 24 hrs by FITC -annexin V/PI double staining based flow cytometric analysis (reference value: 2.4%); assay type: functional
MDA-MB-231 [37] = assay: Cell cycle arrest in human MDA-MB-231 cells assessed as accumulation of cells at S phase at 5 uM measured after 24 hrs by propidium iodide staining based flow cytometry (reference value: 27.6%); assay type: functional
MDA-MB-231 [38] = assay: Cell cycle arrest in human MDA-MB-231 cells assessed as accumulation of cells at G2/M phase at 5 uM measured after 24 hrs by propidium iodide staining based flow cytometry (reference value: 27.5%); assay type: functional
MCF7 [39] = assay: Cell cycle arrest in human MCF7 cells assessed as accumulation of cells at S phase at 15 uM measured after 24 hrs by propidium iodide staining based flow cytometry (reference value: 16.8%); assay type: functional

IC50 (MDA-MB-231 [1]): 6.79 µM
SMILES: CCCC/C=C/CCCCCCCCCC1(O)CC(=O)c2c(O)c(C)c(O)c(C)c2O1 (centres undefined)
selectivity ratio [2]: 2.08
Activity (MDA-MB-231 [3]): inactive
Activity (MDA-MB-231 [4]): Active
Activity (MDA-MB-231 [5]): Active
Activity (MDA-MB-231 [6]): Active
Activity (MCF7 [7]): Active
Activity (MCF7 [8]): 68.7%
Activity (MDA-MB-231 [9]): Dose-Dependent Effect
Activity (MDA-MB-231 [10]): Dose-Dependent Effect
Activity (MCF7 [11]): Dose-Dependent Effect
Activity (MCF7 [12]): Dose-Dependent Effect
Activity (MCF7 [13]): Dose-Dependent Effect
Activity (MCF7 [14]): Active
Activity (MDA-MB-231 [15]): Dose-Dependent Effect
Activity (MDA-MB-231 [16]): Dose-Dependent Effect
Activity (MDA-MB-231 [17]): Dose-Dependent Effect
Activity (MDA-MB-231 [18]): Dose-Dependent Effect
Activity (MDA-MB-231 [19]): Dose-Dependent Effect
Activity (MDA-MB-231 [20]): Dose-Dependent Effect
Activity (MCF7 [21]): Dose-Dependent Effect
Activity (MCF7 [22]): Dose-Dependent Effect
Activity (MCF7 [23]): Dose-Dependent Effect
Activity (MCF7 [24]): Active
Activity (MDA-MB-231 [25]): inactive
Activity (MDA-MB-231 [26]): inactive
inhibition in vivo at 15 mg/kg (MDA-MB-231 [27]): 53.6%
inhibition in vivo at 30 mg/kg (MDA-MB-231 [28]): 79.3%
Activity (MDA-MB-231 [29]): Active
Activity (MDA-MB-231 [30]): Active
Activity (MDA-MB-231 [31]): Active
inhibition (MCF7 [32]): Dose-Dependent Effect
viability at 5 µM (MDA-MB-231 [33]): 82%
Activity (MDA-MB-231 [34]): 4.8%
Activity (MCF7 [35]): 4.7%
Activity (MCF7 [36]): 7.8%
Activity (MDA-MB-231 [37]): 21.3%
Activity (MDA-MB-231 [38]): 18.5%
Activity (MCF7 [39]): 10.3%
